Source: US12358915B2, “METTL3 inhibitory compounds” (STORM THERAPEUTICS LTD., priority 2019, dated 2025)
pIC50: −log10 of the molar value. Counter-ions that a name gives are not always drawn.

The compounds below were run against T1, METTL3/14 (Homo sapiens, UniProt Q86U44) (assay: METTL3/14 methyltransferase assay (METTL3_14 RFMS, RapidFire mass spectrometry)). Details: 5 nM METTL3/14, 0.2 μM RNA substrate, 0.5 μM SAM; lower limit of the assay IC50=5 nM; Compounds 1-62; read-out: METTL3_14 RFMS IC50.
T1 construct: The enzyme used was full-length his-tagged METTL3; His; made in house
T1 sequence (Q86U44 whole entry): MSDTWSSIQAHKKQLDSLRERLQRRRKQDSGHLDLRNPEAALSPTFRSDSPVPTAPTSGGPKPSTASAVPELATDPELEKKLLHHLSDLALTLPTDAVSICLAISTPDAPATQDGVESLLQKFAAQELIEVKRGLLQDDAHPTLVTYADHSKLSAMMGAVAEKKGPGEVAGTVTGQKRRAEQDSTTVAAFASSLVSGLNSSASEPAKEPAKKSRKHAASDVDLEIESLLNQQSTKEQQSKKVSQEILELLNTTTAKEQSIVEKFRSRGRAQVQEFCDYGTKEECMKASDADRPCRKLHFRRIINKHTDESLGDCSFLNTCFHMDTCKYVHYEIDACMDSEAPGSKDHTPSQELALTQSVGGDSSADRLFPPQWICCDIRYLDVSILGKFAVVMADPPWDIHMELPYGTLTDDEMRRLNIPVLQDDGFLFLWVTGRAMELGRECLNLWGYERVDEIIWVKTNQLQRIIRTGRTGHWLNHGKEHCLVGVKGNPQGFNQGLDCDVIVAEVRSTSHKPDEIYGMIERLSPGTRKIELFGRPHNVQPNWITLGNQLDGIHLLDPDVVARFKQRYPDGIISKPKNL
T1 sequence (Q9HCE5 whole entry partner): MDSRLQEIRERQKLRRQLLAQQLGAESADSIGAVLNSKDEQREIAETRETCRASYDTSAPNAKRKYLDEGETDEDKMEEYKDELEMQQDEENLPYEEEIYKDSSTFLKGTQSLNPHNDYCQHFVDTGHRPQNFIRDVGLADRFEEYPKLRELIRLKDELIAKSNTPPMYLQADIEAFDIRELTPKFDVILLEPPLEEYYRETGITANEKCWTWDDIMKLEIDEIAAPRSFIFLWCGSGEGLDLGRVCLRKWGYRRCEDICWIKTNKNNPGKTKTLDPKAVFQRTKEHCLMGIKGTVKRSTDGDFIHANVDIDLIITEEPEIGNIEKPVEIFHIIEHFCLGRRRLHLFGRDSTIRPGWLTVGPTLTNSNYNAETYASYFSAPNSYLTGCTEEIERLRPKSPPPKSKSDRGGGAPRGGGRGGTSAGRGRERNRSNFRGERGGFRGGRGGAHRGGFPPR
Assay type: biochemical
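Also: recombinant His-tagged METTL3 with FLAG-tagged METTL14 from baculovirus, SAH product quantified by mass spectrometry against isotope-labelled internal standards, 60 min at room temperature, scaled between no-RNA and DMSO-only wells.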

Row | pIC50 | SMILES
1 | 4.80 | O=C(NCc1cn2cc(-c3ccn[nH]3)ccc2n1)c1cccc2[nH]ncc12 [Compound 35, N-{[6-(1H-pyrazol-5-yl)imidazo[1,2-a]pyridin-2-yl]methyl}-1H-indazole-4-carboxamide]
2 | 5.41 | O=C(NCc1cn2cc(-c3cccc(Cl)c3)ccc2n1)c1cccc2[nH]ncc12 [Compound 36]
3 | 5.32 | O=C(NCc1cn2cc(Nc3cccnc3)ccc2n1)c1cccc2[nH]ncc12 [Compound 37, N-({6-[(pyridin-3-yl)amino]imidazo[1,2-a]pyridin-2-yl}methyl)-1H-indazole-4-carboxamide]
4 | 5.26 | O=C(NCc1cn2cc(CN3CCNCC3)ccc2n1)c1cccc2[nH]ncc12 [Compound 38, N-({6-[(piperazin-1-yl)methyl]imidazo[1,2-a]pyridin-2-yl}methyl)-1H-indazole-4-carboxamide]
5 | 5.83 | NCc1ccc2nc(CNC(=O)c3cccc4[nH]ncc34)cn2c1 [Compound 39, N-{[6-(aminomethyl)imidazo[1,2-a]pyridin-2-yl]methyl}-1H-indazole-4-carboxamide]
6 | 5.13 | CC(=O)NCc1ccc2nc(CNC(=O)c3cccc4[nH]ncc34)cn2c1 [Compound 40, N-{[6-(acetamidomethyl)imidazo[1,2-a]pyridin-2-yl]methyl}-1H-indazole-4-carboxamide]
7 | 5.87 | Cc1ccc2nc(COC(=O)c3cccc4[nH]ncc34)cn2c1 [Compound 41, {6-methylimidazo[1,2-a]pyridin-2-yl}methyl 1H-indazole-4-carboxylate hydrochloride]
8 | 5.20 | O=C(NCc1cn2cc(CO)ccc2n1)c1cccc2[nH]ncc12 [Compound 42]
9 | 5.89 | O=C(NCc1cn2cc(O)ccc2n1)c1cccc2[nH]ncc12 [Compound 43, N-({6-hydroxyimidazo[1,2-a]pyridin-2-yl}methyl)-1H-indazole-4-carboxamide]
10 | 5.30 | CNCc1ccc2nc(CNC(=O)c3cccc4[nH]ncc34)cn2c1 [Compound 44, N-({6-[(methylamino)methyl]imidazo[1,2-a]pyridin-2-yl}methyl)-1H-indazole-4-carboxamide dihydrochloride]
11 | 5.59 | O=C(NCc1cn2cc(CNCCO)ccc2n1)c1cccc2[nH]ncc12 [Compound 45]
12 | 5.66 | O=C(NCc1cn2cc(CNCC(F)(F)F)ccc2n1)c1cccc2[nH]ncc12 [Compound 46, N-[(6-{[(2,2,2-trifluoroethyl)amino]methyl}imidazo[1,2-a]pyridin-yl)methyl]-1H-indazole-4-carboxamide]
13 | 5.40 | CC(O)c1ccc2nc(CNC(=O)c3cccc4[nH]ncc34)cn2c1 (stereo not shown) [Compound 47, N-{[6-(1-hydroxyethyl)imidazo[1,2-a]pyridin-2-yl]methyl}-1H-indazole-4-carboxamide]
14 | 5.69 | O=C(NCc1cn2cc(C(O)c3ccccc3)ccc2n1)c1cccc2[nH]ncc12 (stereo not shown) [Compound 48, N-({6-[hydroxy(phenyl)methyl]imidazo [1,2-a]pyridin-2-yl}methyl)-1H-indazole-4-carboxamide]
15 | 6.57 | NCc1ccc2nc(CNC(=O)c3cc(=O)n4ccccc4n3)cn2c1 [Compound 50, N-{[6-(aminomethyl)imidazo[1,2-a]pyridin-2-yl]methyl}-4-oxo-4H-pyrido[1,2-a]pyrimidine-2-carboxamide]
16 | 5.91 | O=C(NCc1cn2cc(CNCC(F)(F)F)ccc2n1)c1cc(=O)n2ccccc2n1 [Compound 51, 4-oxo-N-[(6-{[(2,2,2-trifluoroethyl)amino]methyl}imidazo[1,2-a]pyridin-2-yl)methyl]-4H-pyrido[1,2-a]pyrimidine-2-carboxamide]
17 | 6.57 | O=C(NCc1cn2cc(CNCCO)ccc2n1)c1cc(=O)n2ccccc2n1 [Compound 52, N-[(6-{[(2-hydroxyethyl)amino]methyl}imidazo[1,2-a]pyridin-2-yl)methyl]-4-oxo-4H-pyrido[1,2-a]pyrimidine-2-carboxamide]
18 | 7.42 | O=C(NCc1cn2cc(CNCCc3ccccc3)ccc2n1)c1cc(=O)n2ccccc2n1 [Compound 53, 4-oxo-N-[(6-{[(2-phenylethyl)amino]methyl}imidazo[1,2-a]pyridin-2-yl)methyl]-4H-pyrido[1,2-a]pyrimidine-2-carboxamide]
19 | 7.06 | O=C(NCc1cn2cc(CNCCCc3ccccc3)ccc2n1)c1cc(=O)n2ccccc2n1 [Compound 55, 4-oxo-N-[(6-{[(3-phenylpropyl)amino]methyl}imidazo[1,2-a]pyridin-2-yl)methyl]-4H-pyrido[1,2-a]pyrimidine-2-carboxamide]
20 | 6.02 | O=C(NCc1cn2cc(C(O)c3ccccc3)ccc2n1)c1cc(=O)n2ccccc2n1 (stereo not shown) [Compound 56, N-({6-[hydroxy(phenyl)methyl]imidazo[1,2-a]pyridin-2-yl}methyl)-4-oxo-4H-pyrido[1,2-a]pyrimidine-2-carboxamide]
21 | 6.15 | CC(O)c1ccc2nc(CNC(=O)c3cc(=O)n4ccccc4n3)cn2c1 (stereo not shown) [Compound 57, N-{[6-(1-hydroxyethyl)imidazo[1,2-a]pyridin-2-yl]methyl}-oxo-4H-pyrido[1,2-a]pyrimidine-2-carboxamide]
22 | 6.52 | C=Cc1ccc2nc(CNC(=O)c3cc(=O)n4ccccc4n3)cn2c1 [Compound 58, N-({6-ethenylimidazo[1,2-a]pyridin-2-yl}methyl)-4-oxo-4H-pyrido[1,2-a]pyrimidine-2-carboxamide]
23 | 6.03 | O=C(NCc1cn2cc(C3CC3)ccc2n1)c1cc(=O)n2ccccc2n1 [Compound 59, N-({6-cyclopropylimidazo[1,2-a]pyridin-2-yl}methyl)-4-oxo-4H-pyrido[1,2-a]pyrimidine-2-carboxamide]
24 | 6.15 | C=Cc1ccn2cc(CNC(=O)c3cc(=O)n4ccccc4n3)nc2c1 [Compound 60, N-({7-ethenylimidazo[1,2-a]pyridin-2-yl}methyl)-4-oxo-4H-pyrido[1,2-a]pyrimidine-2-carboxamide]
25 | 6.16 | O=C(NCc1cn2cc(CO)ccc2n1)c1cc(=O)n2ccccc2n1 [Compound 61, N-{[6-(hydroxymethyl)imidazo[1,2-a]pyridin-2-yl]methyl}-4-oxo-4H-pyrido[1,2-a]pyrimidine-2-carboxamide]
26 | 5.06 | Cc1ccc2nc(Cc3nnc(-c4cccc5[nH]ncc45)o3)cn2c1 [Compound 62, 2-(1H-indazol-4-yl)-5-[(6-methylimidazo[1,2-a]pyridin-2-yl)methyl]-1,3,4-oxadiazole]

Same assay, conditions: 5 nM METTL3/14, 0.2 μM RNA substrate, 0.5 μM SAM; lower limit of the assay IC50=5 nM; Compounds 63-265; read-out: METTL3_14 RFMS IC50

Row | pIC50 | SMILES
27 | 6.52 | NCCc1ccc2nc(CNC(=O)c3cc(=O)n4ccccc4n3)cn2c1 [Compound 63, N-{[6-(2-aminoethyl)imidazo[1,2-a]pyridin-2-yl]methyl}-4-oxo-4H-pyrido[1,2-a]pyrimidine-2-carboxamide]
28 | 5.14 | Cc1ccc2nc(CNC(=O)c3cc(=O)n4c(n3)CCCC4)cn2c1 [Compound 64, N-({6-methylimidazo [1,2-a]pyridin-2-yl}methyl)-4-oxo-4H,6H,7H,8H, 9H-pyrido[1,2-a]pyrimidine-2-carboxamide]

Same assay, conditions: primary enzyme screen, inhibition of RNA methyltransferase activity; lower limit of the assay is IC50=5 nM; read-out: IC50

Row | pIC50 | SMILES
29 | 7.80 | O=C(NCc1cn2cc(CNCc3ccccc3)ccc2n1)c1cc(=O)n2ccccc2n1 [Compound 54, N-({6-[(benzylamino)methyl]imidazo[1,2-a]pyridin-2-yl}methyl)-4-oxo-4H-pyrido[1,2-a]pyrimidine-2-carboxamide]

Same assay, conditions: read-out: IC50

Row | pIC50 | SMILES
30 | 7.57 | O=C(NCc1cn2cc(CNCCc3ccccc3)ccc2n1)c1cc(=O)n2ccccc2n1 [Compound 53, 4-oxo-N-[(6-{[(2-phenylethyl)amino]methyl}imidazo[1,2-a]pyridin-2-yl)methyl]-4H-pyrido[1,2-a]pyrimidine-2-carboxamide]
31 | 7.18 | O=C(NCc1cn2cc(CNCCCc3ccccc3)ccc2n1)c1cc(=O)n2ccccc2n1 [Compound 55, 4-oxo-N-[(6-{[(3-phenylpropyl)amino]methyl}imidazo[1,2-a]pyridin-2-yl)methyl]-4H-pyrido[1,2-a]pyrimidine-2-carboxamide]
